Tested on: 429239-143-T-J1-PDC complex spheroid viability
Assay: Anticancer human tumor 429239-143-T-J1-PDC patient-derived small cell lung carcinoma cell line growth inhibition [POLQ]
Conditions: for IC50: curve of first compound; for viability, T/C: stronger effect = lower value; active means viability on the fitted dose curve at most 10% of control; inactive means the rest
Procedure, shortened: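 Growth inhibition in 3D: complex spheroids (tumor PDC, HUVEC, MSC) treated with POLQ inhibitor combinations; where Cmax unknown, highest tested concentration 10 microM, except SN-38 at 1 microM.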

[1] = second compound 0.0316 µM, first compound 0.0316 µM
[2] = second compound 0.0316 µM, first compound 0.1 µM
[3] = second compound 0.0316 µM, first compound 0.316 µM
[4] = second compound 0.0316 µM, first compound 1 µM
[5] = second compound 0.0316 µM, first compound 3.16 µM
[6] = second compound 0.0316 µM, first compound 10 µM
[7] = second compound 0.1 µM, first compound 0.0316 µM
[8] = second compound 0.1 µM, first compound 0.1 µM
[9] = second compound 0.1 µM, first compound 0.316 µM
[10] = second compound 0.1 µM, first compound 1 µM
[11] = second compound 0.1 µM, first compound 3.16 µM
[12] = second compound 0.1 µM, first compound 10 µM
[13] = second compound 0.316 µM, first compound 0.0316 µM
[14] = second compound 0.316 µM, first compound 0.1 µM
[15] = second compound 0.316 µM, first compound 0.316 µM
[16] = second compound 0.316 µM, first compound 1 µM
[17] = second compound 0.316 µM, first compound 3.16 µM
[18] = second compound 0.316 µM, first compound 10 µM
[19] = second compound 1 µM, first compound 0.0316 µM
[20] = second compound 1 µM, first compound 0.1 µM
[21] = second compound 1 µM, first compound 0.316 µM
[22] = second compound 1 µM, first compound 1 µM
[23] = second compound 1 µM, first compound 3.16 µM
[24] = second compound 1 µM, first compound 10 µM
[25] = second compound 3.16 µM, first compound 0.0316 µM
[26] = second compound 3.16 µM, first compound 0.1 µM
[27] = second compound 3.16 µM, first compound 0.316 µM
[28] = second compound 3.16 µM, first compound 1 µM
[29] = second compound 3.16 µM, first compound 3.16 µM
[30] = second compound 3.16 µM, first compound 10 µM
[31] = second compound 10 µM, first compound 0.0316 µM
[32] = second compound 10 µM, first compound 0.1 µM
[33] = second compound 10 µM, first compound 0.316 µM
[34] = second compound 10 µM, first compound 1 µM
[35] = second compound 10 µM, first compound 3.16 µM
[36] = second compound 10 µM, first compound 10 µM
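Further: luminescence signal used as surrogate measure of viable cells; spheroids exposed to compounds for seven days before readout.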
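Wherever viability, T/C is given: 100% = DMSO vehicle control viability as luminescence relative to vehicle.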

CC1COCCN1c1cc(-c2ccnn2C)c2ccnc(-c3ccn[nH]3)c2n1 (centres undefined) + Nc1ccc(C#CCN(C(=O)Cc2ncc(C(F)(F)F)cc2C(F)(F)F)c2ccc(F)cc2)nn1
343 nM: IC50 (second compound 3.16 µM)
inactive: viability, T/C [1] 95% | viability, T/C [2] 77.8% | viability, T/C [3] 68.3% | viability, T/C [4] 33.4% | viability, T/C [7] 91.9% | viability, T/C [8] 80.6% | viability, T/C [9] 62.9% | viability, T/C [10] 27.8% | viability, T/C [13] 91.5% | viability, T/C [14] 78.6% | viability, T/C [15] 64.7% | viability, T/C [16] 24.5% | viability, T/C [19] 86.8% | viability, T/C [20] 72% | viability, T/C [21] 56.1% | viability, T/C [22] 26.2% | viability, T/C [25] 87.9% | viability, T/C [26] 72.5% | viability, T/C [27] 53.1% | viability, T/C [28] 26.6% | viability, T/C [31] 89.4% | viability, T/C [32] 71.2% | viability, T/C [33] 47.4% | viability, T/C [34] 25.8%
373 nM: IC50 (second compound 1 µM)
active: viability, T/C [5] 4.99% | viability, T/C [6] 3.79% | viability, T/C [11] 5.19% | viability, T/C [12] 4.25% | viability, T/C [17] 5.31% | viability, T/C [18] 3.76% | viability, T/C [23] 5.38% | viability, T/C [24] 4.35% | viability, T/C [29] 5.52% | viability, T/C [30] 3.58% | viability, T/C [35] 4.8% | viability, T/C [36] 3.43%
545 nM: IC50 (second compound 0.0316 µM)
280 nM: IC50 (second compound 10 µM)
469 nM: IC50 (second compound 0.1 µM)
466 nM: IC50 (second compound 0.316 µM)

O=C(Nc1ccc(O)c(NS(=O)(=O)c2ccc(F)cc2)c1)c1ccc(-c2ccccc2)cc1 + COC1C(OC(N)=O)C(O)C(Oc2ccc3c(O)c(NC(=O)c4ccc(O)c(CC=C(C)C)c4)c(=O)oc3c2C)OC1(C)C
> 10000 nM: IC50 (second compound 0.0316 µM) | IC50 (second compound 0.1 µM) | IC50 (second compound 0.316 µM) | IC50 (second compound 1 µM) | IC50 (second compound 3.16 µM) | IC50 (second compound 10 µM)
inactive: viability, T/C [1] 110% | viability, T/C [2] 97.1% | viability, T/C [3] 108% | viability, T/C [4] 105% | viability, T/C [5] 99% | viability, T/C [6] 66.7% | viability, T/C [7] 90.2% | viability, T/C [8] 92.9% | viability, T/C [9] 99.6% | viability, T/C [10] 121% | viability, T/C [11] 113% | viability, T/C [12] 61.3% | viability, T/C [13] 101% | viability, T/C [14] 83.7% | viability, T/C [15] 95.2% | viability, T/C [16] 105% | viability, T/C [17] 106% | viability, T/C [18] 64.4% | viability, T/C [19] 104% | viability, T/C [20] 92.8% | viability, T/C [21] 93% | viability, T/C [22] 90.8% | viability, T/C [23] 107% | viability, T/C [24] 59.4% | viability, T/C [25] 98.9% | viability, T/C [26] 90% | viability, T/C [27] 100% | viability, T/C [28] 98.7% | viability, T/C [29] 93.3% | viability, T/C [30] 76.9% | viability, T/C [31] 99.1% | viability, T/C [32] 85.9% | viability, T/C [33] 99% | viability, T/C [34] 102% | viability, T/C [35] 113% | viability, T/C [36] 68.6%

From PubChem BioAssay AID1963845 (Molecular Pharmacology Branch, DTP, NCI, 2024)
